Test results as given in ChEMBL document CHEMBL1138654, “Ring nitrogen-substituted non-steroidal estrogens: pyridine and pyrimidine analogs of the phenol in deoxyhexestrol experience resonance constraints on preferred ligand conformation” (Bioorg Med Chem Lett, 2004).

Columns and labels:
[1] = biological target: Estrogen receptor beta (Homo sapiens) (UniProt Q92731); test: Inhibition of [3H]estradiol binding to human estrogen receptor beta
[2] = biological target: T1, Estrogen receptor (Homo sapiens) (UniProt P03372); test: Inhibition of [3H]estradiol binding to human estrogen receptor alpha
T1 sequence (whole entry): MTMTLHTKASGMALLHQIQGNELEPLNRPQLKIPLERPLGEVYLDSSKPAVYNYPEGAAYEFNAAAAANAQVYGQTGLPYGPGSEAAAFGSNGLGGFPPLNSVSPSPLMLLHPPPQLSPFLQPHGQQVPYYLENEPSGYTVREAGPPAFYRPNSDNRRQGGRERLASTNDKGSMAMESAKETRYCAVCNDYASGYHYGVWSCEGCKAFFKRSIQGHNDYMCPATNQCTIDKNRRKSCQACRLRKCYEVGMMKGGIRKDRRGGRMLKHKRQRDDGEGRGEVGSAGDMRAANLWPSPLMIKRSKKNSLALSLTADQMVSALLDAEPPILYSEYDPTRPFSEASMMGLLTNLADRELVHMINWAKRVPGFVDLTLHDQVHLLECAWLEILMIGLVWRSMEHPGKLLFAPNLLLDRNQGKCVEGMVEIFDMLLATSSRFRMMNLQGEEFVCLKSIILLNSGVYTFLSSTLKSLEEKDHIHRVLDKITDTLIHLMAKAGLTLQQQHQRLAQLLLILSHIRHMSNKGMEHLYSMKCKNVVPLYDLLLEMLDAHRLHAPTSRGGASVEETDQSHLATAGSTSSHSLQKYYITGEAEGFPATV

[3] = pKa was determined; type: physicochemical

Estrogen receptor beta (Homo sapiens), sequence (Q92731 whole entry): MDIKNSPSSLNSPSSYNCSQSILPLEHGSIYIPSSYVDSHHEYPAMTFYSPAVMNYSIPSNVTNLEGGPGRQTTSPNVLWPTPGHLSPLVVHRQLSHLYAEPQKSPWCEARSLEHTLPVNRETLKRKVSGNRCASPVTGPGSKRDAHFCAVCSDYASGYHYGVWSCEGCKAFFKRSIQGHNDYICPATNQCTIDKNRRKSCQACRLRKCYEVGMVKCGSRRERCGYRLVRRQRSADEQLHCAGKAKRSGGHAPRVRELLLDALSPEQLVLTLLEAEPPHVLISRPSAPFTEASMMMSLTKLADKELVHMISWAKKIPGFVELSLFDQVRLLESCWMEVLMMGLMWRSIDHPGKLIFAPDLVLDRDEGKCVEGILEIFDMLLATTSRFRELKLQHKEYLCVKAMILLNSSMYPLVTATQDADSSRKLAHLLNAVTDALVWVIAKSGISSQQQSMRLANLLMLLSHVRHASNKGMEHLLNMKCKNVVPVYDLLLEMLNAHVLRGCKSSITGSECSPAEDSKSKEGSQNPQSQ

SMILES | relative binding affinity (RBA) [1] | relative binding affinity (RBA) [2] | pKa [3]
CC(c1ccc(O)cc1)C(C)c1ccc(O)cc1 (stereo not drawn) | 40 | 2.2 | –
CCC(c1ccccc1)N(CC)c1ncc(O)cn1 (stereo not drawn) | – | – | 3.9
